The test system of assay [1] is MCF7. Put plainly: Cytotoxicity against human MCF7 cells assessed as reduction in cell viability at 100 uM measured after 72 hrs under hypoxic condition in presence of doxorubicin by MTT assay. The assay is classed as functional, cell-based. In general terms: Tetrazolium dyes change colour on reduction, which living cells bring about.
Assay [2] addresses Carbonic anhydrase 9 (Homo sapiens, UniProt Q16790). The assay can be described thus: Inhibition of recombinant human CA9 pre-incubated for 15 mins measured by phenol red dye based stopped flow CO2 hydration assay.
The test system of assay [3] is MCF7. The assay can be described thus: Cytotoxicity against human MCF7 cells assessed as reduction in cell viability at 100 uM measured after 72 hrs under hypoxic condition in presence of cisplatin by MTT assay. The format is functional, cell-based.
Assay [4] relates to Mus musculus. The assay can be described thus: Anti-hypersensitive activity in CD-1 albino mouse model of oxaliplatin-induced neuropathic pain assessed as restoration of normal pain threshold at 30 to 100 mg/kg, po administered 14 days post oxaliplatin induction and measured upto 75 mins by cold plate test. The assay is classed as functional, organism-based. The settings on record: dose 30-100 mg/kg, time min <=75.

The subject of assay [5] is Mus musculus. Put plainly: Antiallodynic activity in po dosed CD-1 albino mouse model of oxaliplatin-induced neuropathic pain assessed as reduction in pain-related behavior administered 14 days post oxaliplatin induction and measured upto 75 mins by cold plate test. The assay is classed as functional, organism-based. The settings on record: dose 10-100 mg/kg, time 14.0 day.

Assay [6] has as its system Mus musculus. Put plainly: Anti-hypersensitive activity in CD-1 albino mouse model of oxaliplatin-induced neuropathic pain assessed as restoration of normal pain threshold at 100 mg/kg, po administered 14 days post oxaliplatin induction and measured upto 75 mins by cold plate test. The assay is classed as functional, organism-based. The settings on record: time min <=75.

Assay [7] has as its system Mus musculus. The assay can be described thus: Anti-hypersensitive activity in CD-1 albino mouse model of oxaliplatin-induced neuropathic pain assessed as restoration of normal pain threshold at 10 mg/kg, po administered 14 days post oxaliplatin induction and measured upto 75 mins by cold plate test. The assay is classed as functional, organism-based. The settings on record: time min <=75.

For assay [8], the system named is MCF7. The assay can be described thus: Cytotoxicity against human MCF7 cells assessed as reduction in cell viability measured after 72 hrs under hypoxic condition by MTT assay. The settings on record: MCF7, 72 h.

Calls of active or inactive are those of the source.

As usually defined, the Ki is a measure of affinity in units of concentration, obtained from inhibition or displacement. One may read the IC50 as the concentration at which inhibition is half-maximal.

On to `CCCC[Se]CC(O)CSc1ccc(S(N)(=O)=O)cc1` (stereo unspecified), for which the outcome in assay [1] and in assay [3] was Active. Also, the Ki in assay [2] stood at 164 nM.
Consider `C=CCOCC(O)C[Se]CC(O)C[Se]c1ccc(S(N)(=O)=O)cc1` (stereo unspecified), for which the Ki in assay [2] came to 157 nM.
Regarding `NS(=O)(=O)c1ccc([Se]CC(O)C[Se]c2ccccc2)cc1` (stereo unspecified), the outcome in assay [4] was Active. Further, the Activity entry in assay [5] was “Dose-Dependent Effect”. In assay [2], the Ki was 84.5 nM.
On to `Cc1ccccc1[Se]CC(O)C[Se]c1ccc(S(N)(=O)=O)cc1` (stereo unspecified), for which, in assay [2], the Ki is 29.4 nM.
With `COc1ccc([Se]CC(O)CSc2ccc(S(N)(=O)=O)cc2)cc1` (stereo unspecified), in assay [2], the Ki was determined as 156 nM.
Consider `NS(=O)(=O)c1ccc(SCC(O)C[Se]c2ccccc2)cc1` (stereo unspecified), for which the result in assay [6] was Active. For the same compound, the Activity entry in assay [5] was “Dose-Dependent Effect”. In assay [2], the Ki stood at 29.2 nM.
Take `CC(O)CSCC(O)C[Se]c1ccc(S(N)(=O)=O)cc1` (stereo unspecified): the Ki in assay [2] came out at 275 nM.
Turning to `NS(=O)(=O)c1ccc([Se]CC(O)CSc2ccc(Br)cc2)cc1` (stereo unspecified), the result in assay [4] and in assay [7] was Active. Moreover, the Activity entry in assay [5] was “Dose-Dependent Effect”. Besides, the Ki in assay [2] came out at 172 nM.
In the case of `NS(=O)(=O)c1ccc([Se]CC(O)CSc2ccccc2)cc1` (stereo unspecified), in assay [1], the outcome was Active. Also, in assay [2], the Ki amounted to 288 nM. The result in assay [3] was inactive.
As for `Cc1ccc([Te]CC(O)C[Se]c2ccc(S(N)(=O)=O)cc2)cc1` (stereo unspecified), the Ki in assay [2] worked out at 152 nM.
The same measure, in the same setting: the result for `NS(=O)(=O)c1ccc([Se]CC(O)CSc2ncccn2)cc1` (stereo unspecified) reads 31 nM.
As for `CCCC[Se]CC(O)C[Se]c1ccc(S(N)(=O)=O)cc1` (stereo unspecified), the Ki in assay [2] stood at 208 nM.
Turning to `C=CCOCC(O)C[Se]CC(O)CSc1ccc(S(N)(=O)=O)cc1` (stereo unspecified), the Ki in assay [2] is 241 nM.
With `Cc1ccc(S(=O)(=O)N[C@@H](C)CSCC(O)CSc2ccc(S(N)(=O)=O)cc2)cc1` (stereo partly specified), the Ki in assay [2] is 193 nM.
In the case of `NS(=O)(=O)c1ccc(SCC(O)CSc2cccc(Br)c2)cc1` (stereo unspecified), the Ki in assay [2] worked out at 135 nM.
In the case of `NS(=O)(=O)c1ccc(SCC(O)CSc2ccccc2Br)cc1` (stereo unspecified), the Ki in assay [2] came out at 175 nM.
On to `COc1cc([Te]CC(O)CSc2ccc(S(N)(=O)=O)cc2)cc(OC)c1OC` (stereo unspecified), for which the IC50 in assay [8] is 125000 nM. The result in assay [1] and in assay [3] was Active. Moreover, the Ki in assay [2] was determined as 187 nM.

Source of the values: ChEMBL document CHEMBL4828760, “Chalcogenides-incorporating carbonic anhydrase inhibitors concomitantly reverted oxaliplatin-induced neuropathy and enhanced antiproliferative action” (Eur J Med Chem, 2021).
